# Results from article PMC11813896, “Bis(7)-harmine derivatives as potential multi-target anti-Alzheimer agents” (Frontiers in Chemistry, 2025).
# Where two headings read alike, the source gives them in different places.
# Experiments:
# AChE = settings: cited from earlier work
# BuChE = settings: cited from earlier work
# BACE1 = system: BACE1; design: method as in Bolognesi et al., 2010; settings: ref Bolognesi et al., 2010; read-out: IC50 for inhibiting BACE1 (bis-tacrine); cited from earlier work
# Aβ1-42 = settings: cited from earlier work
# hAChE = hAChE (Homo sapiens, UniProt P22303); experiment: biochemical; settings: for IC50: Mean ± SD from 3-5 assays, read-out: IC50 (nM) for cholinesterase hAChE
# Protocol: 50 μL of hAChE (0.02 unit/mL) or hBChE (0.02 unit/mL) were incubated with 10 μL of the compound in 96-well plates at 37°C for 6 min. Subsequently, 30 μL of a substrate solution containing acetylthiocholine iodide (ATCI) or butyrylthiocholine iodide (BTCI) at a concentration of 0.01 M was added, and the mixture was further incubated at 37°C for an additional duration of 12 min.
# hBuChE = hBuChE (Homo sapiens, UniProt P06276); experiment: Ellman's assay, hBuChE inhibition; type: biochemical; settings: for inhibition at 1 µM: compound at 1 μM, read-out: inhibition of hBuChE in primary screening; for IC50: Mean ± SD from 3-5 assays, read-out: IC50 (nM) for cholinesterase hBuChE
# Protocol: The Ellman’s assay was utilized to assess the inhibitory potential of novel bis(7)-harmine derivatives against hAChE and hBuChE. 50 μL of hAChE (0.02 unit/mL) or hBChE (0.02 unit/mL) were incubated with 10 μL of the compound in 96-well plates at 37°C for 6 min. Subsequently, 30 μL of a substrate solution containing acetylthiocholine iodide (ATCI) or butyrylthiocholine iodide (BTCI) at a concentration of 0.01 M was added, and the mixture was further incubated at 37°C for an additional duration of 12 min. Finally, the activity was measured by adding 150 μL of a solution containing 5,5′−dithiobis (2-nitrobenzoic acid) (DTNB) at a concentration of 0.01 M, followed by measuring absorbance at a wavelength of 415 nm using an Evolution 300 PC UV-Vis Spectrophotometer.
# recombinant hMAO-A = biological target: T1, recombinant hMAO-A (Homo sapiens, UniProt P21397); experiment: biochemical; settings: for IC50: mean ± SD, read-out: IC50 (nM) for monoamine oxidases hMAO-A
# T1 construct: purchased Sigma-Aldrich
# T1 sequence (P21397 1-527): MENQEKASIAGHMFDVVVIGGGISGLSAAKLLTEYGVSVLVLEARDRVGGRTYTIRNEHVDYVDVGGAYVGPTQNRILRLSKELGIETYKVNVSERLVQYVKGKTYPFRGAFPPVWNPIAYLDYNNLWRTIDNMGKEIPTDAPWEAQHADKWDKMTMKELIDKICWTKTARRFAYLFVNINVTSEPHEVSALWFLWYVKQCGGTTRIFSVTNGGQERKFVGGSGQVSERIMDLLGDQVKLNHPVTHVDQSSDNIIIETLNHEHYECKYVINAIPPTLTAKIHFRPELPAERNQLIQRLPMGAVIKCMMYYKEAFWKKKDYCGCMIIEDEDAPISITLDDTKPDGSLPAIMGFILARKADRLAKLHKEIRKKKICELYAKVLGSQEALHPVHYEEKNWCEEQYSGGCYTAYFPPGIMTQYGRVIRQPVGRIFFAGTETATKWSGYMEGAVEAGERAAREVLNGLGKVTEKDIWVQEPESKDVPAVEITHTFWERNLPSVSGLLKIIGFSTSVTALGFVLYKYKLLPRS
# Protocol: (§1) Briefly, the compounds under investigation and the reference inhibitor were preincubated with kynuramine at 37°C for 10 min in 96-well microplates. […] The enzymatic reactions were terminated by adding 400 μL of 2 N NaOH and 1,000 μL of water, followed by centrifugation at 16,000 g for 10 min. Subsequently, the concentrations of MAOs that produced 4-hydroxyquinoline were determined by measuring the fluorescence of the supernatant using a Varioskan Flash Multimode Reader ([…]) with excitation and emission wavelengths set at 310 nm and 400 nm, respectively. The IC50 values were calculated from dose-response curves and expressed as the mean ± standard deviation. These values were determined based on at least three independent experiments, each performed in triplicate.
# recombinant hMAO-B = biological target: T2, recombinant hMAO-B (Homo sapiens, UniProt P27338); experiment: biochemical; settings: mean ± SD; read-out: IC50 (nM) for monoamine oxidases hMAO-B
# T2 construct: purchased Sigma-Aldrich
# T2 sequence (P27338 1-520): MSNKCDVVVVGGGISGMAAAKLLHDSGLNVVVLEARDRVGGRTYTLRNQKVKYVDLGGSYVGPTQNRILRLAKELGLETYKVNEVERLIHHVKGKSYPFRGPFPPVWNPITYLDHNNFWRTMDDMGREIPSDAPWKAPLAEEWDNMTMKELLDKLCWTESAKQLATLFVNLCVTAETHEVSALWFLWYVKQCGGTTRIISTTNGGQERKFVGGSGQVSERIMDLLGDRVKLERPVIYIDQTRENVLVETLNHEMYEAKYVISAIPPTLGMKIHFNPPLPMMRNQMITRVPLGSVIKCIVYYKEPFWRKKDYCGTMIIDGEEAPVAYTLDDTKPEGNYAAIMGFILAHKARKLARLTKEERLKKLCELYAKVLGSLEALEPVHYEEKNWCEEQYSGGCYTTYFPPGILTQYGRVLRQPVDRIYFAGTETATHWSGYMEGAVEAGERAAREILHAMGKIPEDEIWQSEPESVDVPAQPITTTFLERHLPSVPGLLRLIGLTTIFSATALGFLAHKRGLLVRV
# Protocol: as §1
# Aβ 1−42 = Aβ 1−42 (Homo sapiens, UniProt P05067); experiment: Thioflavin T fluorescence assay, Aβ 1−42 self-aggregation; type: biochemical; settings: Aβ 1-42 20 μM, 37°C, 24 h
# Protocol: The thioflavin T (Th-T) fluorescence assay was used to assess the inhibition of Aβ 1−42 self-aggregation. […] Subsequently, the reaction was terminated to a final volume of 200 μL using Th-T (10 μM) solution.
# SHSY5Y cells [1] = experiment: In vitro cytotoxicity, MTT assay; type: cell-based; settings: for cytotoxicity in SHSY5Y cells: 0.1 to 10 μM; for SHSY5Y cell viability at increased concentration: concentration increased to 10 μM (so in the source)
# Protocol: Following this incubation period, the MTT solution was substituted with […] of DMSO and further incubated at room temperature for 10 minutes to dissolve formazan crystals formed by viable cells. Sorensen Buffer ([…]) was added subsequently followed by measuring absorbance at a wavelength of 570 nm to determine cell viability based on calculated values obtained from control samples without compound treatment. This experimental procedure was repeated independently three times.
# SHSY5Y cells [2] = experiment: Protection of SHSY5Y cells against damage induced by Aβ 1−42, MTT; type: cell-based, human; settings: for cellular recovery from Aβ 1-42-induced damage: 1 μM, co-exposed with Aβ 1-42 for 48 h
# Protocol: The protective effect of the test compounds against Aβ 1-42-induced damage was assessed by monitoring MTT reduction in cells co-exposed to the compound and Aβ 1-42 for 48 h (Figure 3) ([…]). The 6d, 8c, and 8d were tested at concentrations of 1, 5, and 10 μM. […] Therefore, it is imperative to elucidate the underlying mechanisms responsible for these protective effects.
# The SHSY5Y cells were seeded in 96-well plates at a density of 1 × 10^4 cells per well and incubated at 37°C for 24 h. Each compound was dissolved in DMSO, followed by direct dilution in the cell culture medium to achieve final concentrations of 1 μM, 5 μM, and 10 μM. Aβ 1−42 was added to each well at a concentration of 5 μM. The cells were then further incubated at 37°C for an additional period of 48 h. Cell viability was subsequently assessed using the MTT assay protocol ([…]).
# Chain of hBuChE (P06276 29-602): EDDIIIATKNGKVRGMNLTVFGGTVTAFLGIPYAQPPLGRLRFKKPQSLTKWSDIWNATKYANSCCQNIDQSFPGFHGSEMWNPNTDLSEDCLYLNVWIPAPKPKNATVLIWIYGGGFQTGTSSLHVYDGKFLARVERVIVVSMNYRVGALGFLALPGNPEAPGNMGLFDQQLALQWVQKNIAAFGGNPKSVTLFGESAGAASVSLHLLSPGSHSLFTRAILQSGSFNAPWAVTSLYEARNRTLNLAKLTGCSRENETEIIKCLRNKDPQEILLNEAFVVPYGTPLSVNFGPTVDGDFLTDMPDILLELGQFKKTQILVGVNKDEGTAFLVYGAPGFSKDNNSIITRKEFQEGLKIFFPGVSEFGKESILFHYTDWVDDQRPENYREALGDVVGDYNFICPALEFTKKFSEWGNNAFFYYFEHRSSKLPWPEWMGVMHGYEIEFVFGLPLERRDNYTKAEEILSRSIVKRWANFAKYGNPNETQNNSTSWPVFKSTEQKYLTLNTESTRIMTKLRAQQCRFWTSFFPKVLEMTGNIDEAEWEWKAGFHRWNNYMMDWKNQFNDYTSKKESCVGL
# Chain of hAChE (P22303 32-614): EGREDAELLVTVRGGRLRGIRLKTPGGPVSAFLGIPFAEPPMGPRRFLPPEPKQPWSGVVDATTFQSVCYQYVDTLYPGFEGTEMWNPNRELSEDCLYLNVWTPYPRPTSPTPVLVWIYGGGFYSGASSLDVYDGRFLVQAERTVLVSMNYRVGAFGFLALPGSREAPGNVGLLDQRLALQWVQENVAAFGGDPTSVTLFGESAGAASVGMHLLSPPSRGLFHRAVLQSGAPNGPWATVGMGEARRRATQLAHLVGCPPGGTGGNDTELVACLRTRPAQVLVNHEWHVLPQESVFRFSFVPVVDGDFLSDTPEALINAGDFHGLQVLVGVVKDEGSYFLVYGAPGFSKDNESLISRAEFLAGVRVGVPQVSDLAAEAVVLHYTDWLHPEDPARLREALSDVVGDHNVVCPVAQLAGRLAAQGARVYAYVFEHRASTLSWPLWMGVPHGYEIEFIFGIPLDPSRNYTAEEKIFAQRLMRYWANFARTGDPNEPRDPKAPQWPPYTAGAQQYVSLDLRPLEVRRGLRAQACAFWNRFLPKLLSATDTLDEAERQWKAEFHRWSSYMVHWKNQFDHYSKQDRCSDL
# Chain of Aβ 1−42 (P05067 672-713 limits assumed): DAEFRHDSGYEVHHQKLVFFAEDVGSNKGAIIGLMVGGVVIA
Compound,S.I. Selectivity index IC50(hBuChE)/IC50(hAChE) (hAChE),IC50 (hAChE),inhibition at 1 µM (hBuChE),IC50 (recombinant hMAO-A),IC50 (recombinant hMAO-B),IC50 (Aβ 1−42),S.I. Selectivity index IC50(hMAO-B)/IC50(hMAO-A) (recombinant hMAO-A),further results
"c1ccc2c(NCCCCCCCNc3c4c(nc5ccccc35)CCCC4)c3c(nc2c1)CCCC3 [Compound 2, Bis-tacrine]",–,–,–,–,–,–,–,"IC50 (AChE; ref Bolognesi et al., 2010, read-out: IC50 for inhibiting AChE (bis-tacrine)): […]; IC50 (BuChE; ref Bolognesi et al., 2010, read-out: IC50 for inhibiting BuChE (bis-tacrine)): 5.66 nM; IC50 (BACE1): 7500 nM; Aβ1-42 (bis-tacrine, Figure 1) (Aβ1-42; ref Bolognesi et al., 2010): 68.0%"
"COC(=O)c1cc2c3ccccc3n(CCCCN(C)CCN(C)CCCCn3c4ccccc4c4cc(C(=O)OC)nc(C)c43)c2c(C)n1 [Compound 5, Bis-(9)-β-carboline]",–,–,–,–,–,–,–,"IC50 (AChE; ref Rook et al., 2010, Zhao et al., 2018, read-out: AChE (bis-(9)-β-carboline 5, Figure 1)): 9600 nM; IC50 (BuChE; ref Rook et al., 2010, Zhao et al., 2018, read-out: BuChE (bis-(9)-β-carboline 5, Figure 1)): 1500 nM; Aβ1-42 (bis-(9)-β-carboline 5, Figure 1) (Aβ1-42; ref Rook et al., 2010, Zhao et al., 2018): 65.5%"
"C=CCn1c2cc(OCCCCCCCCOc3ccc4c5ccnc(C)c5n(CC=C)c4c3)ccc2c2ccnc(C)c21 [Compound 8d, 1,8-bis ((9-allyl-1-methyl-9H-pyrido [3,4-b]indol-7-yl)oxy)octane]",>1.0,963 ± 69.5 nM,39.8%,25.7 ± 1.9 nM,335 ± 13.8 nM,9.2 ± 0.4 µM,–,cytotoxicity in SHSY5Y cells (SHSY5Y cells [1]; 48 h): negligible cytotoxicity; SHSY5Y cell viability at increased concentration (SHSY5Y cells [1]; 48 h): evident decrease in SHSY5Y cell viability; cellular recovery from Aβ 1-42-induced damage (SHSY5Y cells [2]): significant cellular recovery
C=CCn1c2cc(OC(=O)CCCCN3CCN(Cc4ccc(C(F)(F)F)cc4)CC3)ccc2c2ccnc(C)c21 [Compound 7],–,–,–,–,–,–,–,"IC50 (AChE; ref Du et al., 2023, Haider et al., 2018, read-out: AChE (compound 7 of Figure 1)): 48.4 nM; IC50 (BuChE; ref Du et al., 2023, Haider et al., 2018, read-out: BuChE (compound 7 of Figure 1)): 356 nM; IC50 (Aβ1-42; ref Du et al., 2023, Haider et al., 2018, read-out: Aβ1-42 (compound 7 of Figure 1)): 12400 nM"
Aβ 1−42: amyloid-β peptide 1−42 used to induce damage in SHSY5Y cells [reference compound],–,–,–,–,–,–,–,"reduction of viability of SHSY5Y neuroblastoma cells (SHSY5Y cells [2]; treatment with Aβ 1−42 5 μM, 48 h, MTT): 48.7%"
c1ccc2c(c1)[nH]c1c[n+](CCCCCCCCCCCC[n+]3ccc4c(c3)[nH]c3ccccc34)ccc12 [Compound 4],–,–,–,–,–,–,–,"IC50 (AChE; ref Rook et al., 2010, Zhao et al., 2018, read-out: AChE (bis-(2)-β-carboline 4, Figure 1)): 86 nM; IC50 (BuChE; ref Rook et al., 2010, Zhao et al., 2018, read-out: BuChE (bis-(2)-β-carboline 4, Figure 1)): 22 nM"
"C=CCn1c2cc(OCCCCCCOc3ccc4c5ccnc(C)c5n(CC=C)c4c3)ccc2c2ccnc(C)c21 [Compound 6d, 1,6-bis ((9-allyl-1-methyl-9H-pyrido [3,4-b]indol-7-yl)oxy)hexane]",1.9,54.3 ± 3.6 nM,–,402 ± 23.7 nM,189 ± 13.6 nM,14.1 ± 0.5 µM,0.5,"IC50 (hBuChE): 102 ± 4.6 nM; effect on SHSY5Y cell viability (SHSY5Y cells [1]; 0.1–100 μM, 48 h incubation): no significant impact on cell viability; cellular recovery from Aβ 1-42-induced damage (SHSY5Y cells [2]): significant cellular recovery"
"CCn1c2cc(OCCCCCCCCOc3ccc4c5ccnc(C)c5n(CC)c4c3)ccc2c2ccnc(C)c21 [Compound 8b, 1,8-bis ((9-ethyl-1-methyl-9H-pyrido [3,4-b]indol-7-yl)oxy)octane]",2.7,324 ± 20.5 nM,–,66.5 ± 4.1 nM,758 ± 52.6 nM,18.7 ± 0.9 µM,11.5,"IC50 (hBuChE): 855 ± 48.8 nM; effect on SHSY5Y cell viability (SHSY5Y cells [1]; 1 μM, 48 h): pronounced detrimental effect"
"Cc1nccc2c3ccc(OCCCCCCCOc4ccc5c6ccnc(C)c6n(C)c5c4)cc3n(C)c12 [Compound 7a, 1,7-bis ((1,9-dimethyl-9H-pyrido [3,4-b]indol-7-yl)oxy)heptane]",>4.4,226 ± 13.4 nM,37.3%,7.2 ± 0.8 nM,281 ± 24.5 nM,6.3 ± 0.2 µM,40.1,"effect on SHSY5Y cell viability (SHSY5Y cells [1]; 1 μM, 48 h): pronounced detrimental effect"
"CCCn1c2cc(OCCCCCCCCOc3ccc4c5ccnc(C)c5n(CCC)c4c3)ccc2c2ccnc(C)c21 [Compound 8c, 1,8-bis ((1-methyl-9-propyl-9H-pyrido [3,4-b]indol-7-yl)oxy)octane]",>6.3,158 ± 11.6 nM,43.4%,16.4 ± 1.1 nM,153 ± 8.3 nM,19.3 ± 1 µM,9.5,cytotoxicity in SHSY5Y cells (SHSY5Y cells [1]; 48 h): negligible cytotoxicity; SHSY5Y cell viability at increased concentration (SHSY5Y cells [1]; 48 h): evident decrease in SHSY5Y cell viability
